“And” between values parts separate entries of the source, which are not always exact repeats. Identical values can stand only once. “Also recorded” adds a separate entry of the source.
Columns and labels:
[1] = Protein binding in human serum (size exclusion spin columns); conditions: 37 °C, n = 3
Procedure: At selected time points, 25 μl of serum aliquots was applied on size exclusion spin columns MicroSpin™ G-50 (GE Healthcare, Vienna, Austria). Columns were centrifuged at 2000 rcf for 2 min to separate protein bound radiotracer (eluate) from non-protein bound radiotracer (column). Protein binding ability was determined by measuring activities of column and eluate in the gamma counter.

[2] = Stability in PBS pH 7.4 (RP-HPLC, %RCP); conditions: PBS pH 7.4, 37 °C, n = 3
Procedure: (§1) [^68Ga]siderophore (50 μl, 2 nmol) was incubated in 450 μl PBS or human serum at 37 °C. At each time point, aliquot of PBS was injected directly to RP-HPLC whereas serum aliquot was mixed with MeOH, vortexed, and centrifuged at 20,000 rcf for 2 min. Supernatant was diluted with H2O and subsequently analyzed by RP-HPLC. The stability was presented as %RCP of radiotracer (n = 3).

[3] = tested on: A. fumigatus wildtype (ATCC46645); test: In vitro uptake assay in A. fumigatus; type: cell-based, Aspergillus fumigatus; conditions: iron-starvation condition, 45 min, normalized to [^68Ga]TAFC uptake from the same experiment, n = 3
Procedure: For in vitro uptake studies, A. fumigatus wildtype (ATCC46645) was used. Fungal strain was cultured at 37 °C in Aspergillus minimal medium (AMM) containing 1 % (m/v) glucose as carbon source, 20 mM glutamine as nitrogen source, salts, and trace elements. Iron-sufficient media were prepared by adding FeSO4 to a final concentration of 30 μM. For iron-deficient conditions, supplementation of iron was omitted. Iron starvation was verified by the detection of extracellular siderophore production which is suppressed by iron supplementation.
Uptake assays were performed in either iron-deficient or iron-sufficient A. fumigatus wildtype cultures. In a 96-well MultiScreen Filter Plates HTS (1 μm glass fiber filter, Merck Millipore, Darmstadt, Germany), 180 μl of A. fumigatus suspended in iron-replete or iron-depleted medium was added. [^68Ga]siderophores (approx. 1 × 10^5 cpm, 80 nM) were incubated with either PBS pH 7.4 (total series) or blocking solution (10 μM [Fe]TAFC) (non-specific series) at RT for 45 min in quadriplicates. The incubation was interrupted by suction of the medium and the plate was washed twice with ice-cold TRIS-buffered saline (10 mM, pH 7.3). The filters were isolated and the remaining activities were measured in the gamma counter. The uptake was calculated as % uptake of total activity added; each assay was repeated three times. To normalize uptake variations between different fungal cultures, the uptake of each [^68Ga]siderophore was expressed as the ratio to [^68Ga]TAFC uptake from the same experiment. The mean values of three different assays were used to quantitatively compare the difference in uptake between the compounds.

[4] = Stability in fresh human serum (RP-HPLC, %RCP); conditions: 37 °C, n = 3
Procedure: as §1

[5] = Biodistribution in healthy BALB/c mice; conditions: 90 min p.i.
Procedure: At 90 min post injetion (p.i.), mice were sacrified by cervical dislocation. Organs and tissues (blood, spleen, pancrease, stomach, intestine, kidneys, liver, heart, lung, muscle, femur) were collected and weighed. Radioactivities accumulated by tissues were measured in the gamma counter. The obtained values were expressed as the percentage of injected dose per gram tissue (%ID/g). Urine sample from each animal was injected to RP-HPLC for analysis of urinary metabolic profile of [^68Ga]siderophore.

[6] = tested on: A. fumigatus infection; test: Small animal PET/CT imaging in rat IPA model; conditions: IPA Lewis rats (A. fumigatus lung infection), r.o. injection ~6 MBq, PET/CT 45 min p.i.
Procedure: (§2) PET and CT images were acquired with an Albira PET/SPECT/CT small animal imaging system (Bruker Biospin Corporation, Woodbridge, CT, USA). A. fumigatus infection in rats was established as described by Petrik, et al.. A group of 3 female Lewis rats (2–3 months old), healthy or lung infected, were injected retro-orbitally (r.o.) with [^68Ga] […] Animals were anesthetized with isoflurane (FORANE, Abbott Laboratories, Abbott Park, IL, USA) (2 % flow rate) and positioned prone head first in the Albira system. PET/CT imaging was started 45 min p.i. with a 10-min PET (FOV 148 mm axial) and a subsequent triple CT scanning (FOV 3 × 65 mm axial, 45 kVp, 400 μA, at 400 projections). For reconstruction, Albira software (Bruker Biosoin Corporation, Woodbridge, CZ, USA) was used involving filtered backprojection and MLEM algorithms. PMOD software (PMOD Technologies Ltd., Zurich, Switzerland) was used to analyze and view the reconstructed images.

[7] = Small animal PET/CT imaging in non-infected Lewis rats; conditions: for excretion in PET/CT images: healthy Lewis rats, 45 min p.i.; for Lung uptake (non-infected): non-infected Lewis rats, r.o. injection ~6 MBq, PET/CT 45 min p.i.
Procedure: as §2

[8] = tested on: A. terreus wildtype strain; test: In vitro uptake assay in A. terreus (lacks the MirB transporter); type: cell-based, Aspergillus terreus
Procedure: To confirm the specificity of uptake of TAFC derivatives by A. fumigatus via the MirB transporter, A. terreus, which lacks the MirB transporter, was used for in vitro uptake assay. A. terreus was grown in either iron-deficient or iron-sufficient cultures. Uptake studies were performed as described for A. fumigatus and expressed as % uptake of total activity added.

[9] = Distribution coefficient (logD), octanol/PBS pH 7.4; type: physicochemical; conditions: [^68Ga]siderophore 4 μM, octanol/PBS pH 7.4, n = 5
Procedure: [^68Ga]siderophore (4 μM) in 500 μl phosphate-buffered saline (PBS), pH 7.4, was added to 500 μl octanol. The mixture was vortexed at 1400 rpm for 15 min and subsequently centrifuged at 2000 rcf for 2 min.

[10] = healthy BALB/c mice, i.v., n = 3

Structure (SMILES)	Protein binding (%) ([1]; incubation time 30 min)	Protein binding (%) ([1]; incubation time 60 min)	Protein binding (%) ([1]; incubation time 120 min)	Stability in PBS (%) ([2]; 30 min)	Stability in PBS (%) ([2]; 60 min)	Stability in PBS (%) ([2]; 120 min)	uptake ratio to [^68Ga]TAFC [3]	Stability in serum (%) ([4]; 30 min)	Stability in serum (%) ([4]; 60 min)	Stability in serum (%) ([4]; 120 min)	species detected in urine (RP-HPLC urinary metabolic profile) ([5]; BALB/c mice)	excretion ([5]; healthy BALB/c mice, i.v.)	blood levels [5, 10]	Lung uptake (infected) [6]	Lung uptake (non-infected) [7]	excretion in PET/CT images [7]	other results
CCCC(=O)NC1CCCN(O)C(=O)C=C(C)CCOC(=O)C(NC(C)=O)CCCN(O)C(=O)C=C(C)CCOC(=O)C(NC(C)=O)CCCN(O)C(=O)C=C(C)CCOC1=O (stereo not drawn) (68Ga complex, metal not drawn) [DABuFC, diacetylbutanoyl(FSC)]	2.63 ± 1.03%	2.92 ± 1.11%	3.61 ± 1.19%	99.87 ± 0.07%	99.85 ± 0.08%	99.79 ± 0.14%	0.87	99.58 ± 0.04%	99.59 ± 0.20%	99.60 ± 0.14%	only intact	rapid renal excretion	< 0.1 %ID/g	0.79 ± 0.15 %ID/g	0.23 ± 0.03 %ID/g	–	uptake ratio to [^68Ga]TAFC ([3]; listed as [^68Ga]DABuFC): around 1; retention in the blood, spleen, and pancreas in comparison with [^68Ga]TAFC ([5]; BALB/c mice): Slightly lower retention; excretion in PET/CT images ([7]; listed as [^68Ga]DABuFC): excreted rapidly via the urinary system; also recorded: certain hepatobiliary excretion
CC1=CC(=O)N(O)CCCC(NC(=O)CCC(=O)O)C(=O)OCCC(C)=CC(=O)N(O)CCCC(NC(=O)CCC(=O)O)C(=O)OCCC(C)=CC(=O)N(O)CCCC(NC(=O)CCC(=O)O)C(=O)OCC1 (stereo not drawn) (68Ga complex, metal not drawn) [FSC(suc)3, trisuccinyl(FSC)]	2.53 ± 0.63%	2.96 ± 0.21%	2.60 ± 0.62%	99.85 ± 0.07%	99.77 ± 0.12%	99.72 ± 0.09%	0.01	99.59 ± 0.08%	99.43 ± 0.17%	99.36 ± 0.08%	only intact	rapid renal excretion	< 0.1 %ID/g	–	0.21 ± 0.03 %ID/g	excreted rapidly via the urinary system	uptake ratio to [^68Ga]TAFC ([3]; listed as [^68Ga]FSC(suc)3): less than 0.05; retention in the intestine and kidneys in comparison with [^68Ga]TAFC ([5]; BALB/c mice): Slightly lower retention; Lung uptake (infected) ([6]; listed as [^68Ga]FSC(suc)3): 0.31 ± 0.04 %ID/g and 0.3 %ID/g
C/C1=C/C(=O)N(O)CCCC(N)C(=O)OCC/C(C)=C\C(=O)N(O)CCCC(N)C(=O)OCC/C(C)=C\C(=O)N(O)CCCC(N)C(=O)OCC1 (stereo not drawn) (68Ga complex, metal not drawn) [FSC, fusarinine C]	–	–	–	–	–	–	1.37	–	–	–	–	–	–	–	–	–	Uptake in A. terreus in iron-replete condition ([8]; iron-replete condition): 2 % of total activity added; Uptake in A. terreus with TAFC blocking ([8]; iron-starvation condition with TAFC blocking): 28 % of total activity added; uptake in A. terreus ([8]; iron-starvation condition, 45 min, n = 3): > 30 % of total activity added; uptake ratio to [^68Ga]TAFC ([3]; listed as [^68Ga]FSC): ~1.4
CC(=O)NC1CCCN(O)C(=O)C=C(C)CCOC(=O)C(NC(C)=O)CCCN(O)C(=O)C=C(C)CCOC(=O)C(NC(C)=O)CCCN(O)C(=O)C=C(C)CCOC1=O (stereo not drawn) (68Ga complex, metal not drawn) [TAFC, triacetylfusarinine C]	2.54 ± 1.01%	3.55 ± 0.68%	2.96 ± 0.33%	99.89 ± 0.02%	99.83 ± 0.13%	99.73 ± 0.03%	1	99.48 ± 0.29%	99.46 ± 0.09%	99.41 ± 0.19%	only intact	rapid renal excretion	< 0.1 %ID/g	0.69 ± 0.11 %ID/g	0.20 ± 0.03 %ID/g	excreted rapidly via the urinary system	–
CCCC(=O)NC1CCCN(O)C(=O)C=C(C)CCOC(=O)C(NC(=O)CCC)CCCN(O)C(=O)C=C(C)CCOC(=O)C(NC(=O)CCC)CCCN(O)C(=O)C=C(C)CCOC1=O (stereo not drawn) (68Ga complex, metal not drawn) [TBuFC, tributanoyl(FSC)]	–	–	–	–	–	–	0.86	–	–	–	–	–	–	–	–	–	uptake ratio to [^68Ga]TAFC ([3]; listed as [^68Ga]TBuFC): around 1; logD [9]: 0.34 ± 0.01
CCC(=O)NC1CCCN(O)C(=O)C=C(C)CCOC(=O)C(NC(=O)CC)CCCN(O)C(=O)C=C(C)CCOC(=O)C(NC(=O)CC)CCCN(O)C(=O)C=C(C)CCOC1=O (stereo not drawn) (68Ga complex, metal not drawn) [TPFC, tripropanoyl(FSC)]	2.31 ± 0.57%	3.39 ± 0.32%	2.65 ± 0.66%	99.90 ± 0.02%	99.86 ± 0.04%	99.79 ± 0.11%	1.40	99.67 ± 0.19%	99.56 ± 0.23%	99.54 ± 0.25%	only intact	rapid renal excretion	< 0.1 %ID/g	0.63 ± 0.08 %ID/g	0.20 ± 0.02 %ID/g	–	uptake ratio to [^68Ga]TAFC ([3]; listed as [^68Ga]TPFC): ~1.4; uptake in intestine [5, 10]: lower than 3 %ID/g; excretion in PET/CT images ([7]; listed as [^68Ga]TPFC): excreted rapidly via the urinary system; also recorded: certain hepatobiliary excretion
